Laboratory results: patent US11692004B2, “Substituted pyrazole compound, preparation method therefor, pharmaceutical composition and medical use thereof” (JIANGSU VANGUARD PHARMACEUTICAL CO., LTD., priority 2018, dated 2023)

What was measured:
PC12 cells = test: In-vitro neuroprotection-I (H2O2 injury, MTT); assay type: cell-based; conditions: Rattus norvegicus, PC-12, 48 h compound, then 200 μM H2O2 24 h, MTT survival rate
Description: All samples were made into 60 mM stock solution by DMSO, which were 200 times diluted to 300 μM by medium. And the final concentration was further diluted into different concentrations by media.
Control: Normal cell-plating and same cell medium as other group. 24 hours later, the medium was discarded. Incubate the cell in new media for 24 hours. No compound and hydrogen peroxide treatment. Other steps were the same as the sample test as mentioned below did.
Blank: no cell plating, cell medium, and other steps were the same as the sample test as mentioned below did.
(§1) After resuscitating, the PC12 cells were cultured in RPMI-1640 containing 10% horse serum and 5% Fetus Bovine Serum (FBS) under 5% CO2 at 37° C. for two weeks. The medium was changed every other day. The compounds were diluted into solutions of 12.5, 25, 50, 100, 200, 300 μM with culture medium (except that examples 33-45 with additional solutions of 400 μM and 500 μM). The PC 12 cells were seeded into a 96-well plate at a density of 8×10^3 cells/well and cultured in a 37° C., 5% CO2 incubator for 24 hours. Removed the medium, the cells were added with the compound solutions of different concentrations as test solutions for another 48 h incubation in a 37° C., 5% CO2 incubator. After the incubation, apart from the blank and control groups, the wells (including 0 μM drug group) were added to the medium-prepared 200 μM H2O2, and continued for another 24 h incubation in a 37° C., 5% CO2 incubator.
After the incubation, the wells were added with 20 μL 5 mg/mL MTT and incubated for 4 hours at 37° C. Carefully removed the medium and added 150 μL DMSO. The plates were placed on an enzyme-labeled instrument and vibrated for 5 min. The absorbance Atest solution were obtained at 490 nm with the Ablank of the well without cells and the Acontrol of the well with untreated cells. The survival rate of the cells in every well by the formula survival rate (%)=(Atest solution−Ablank)/(Acontrol−Ablank)*100%.

Cytotoxic test (MTT) = assay type: cell-based; conditions: rat, PC12 cells, 48 h incubation
Description: as §1, with “(except” for “(except that”, “PC12” for “PC 12”, “1.2×10^4” for “8×10^3”, “Remove” for “Removed”, “incubator.” for “incubator. After the incubation, apart from the blank and control groups, the wells (including 0 μM drug group) were added to the medium-prepared 200 μM H2O2, and continued for another 24 h incubation in a 37° C., 5% CO2 incubator.”
After the incubation, the wells were added with 20 μL 5 mg/mL MTT and incubated for 4 hours at 37° C. Carefully removed the medium and added 150 μL DMSO. The plates were placed on an enzyme-labeled instrument and vibrated for 5 min. The absorbance Atest solution were obtained at 490 nm with the Ablank of the well without cells and the Acontrol of the well with untreated cells. The survival rates of the cells in every well were calculated by the formula as Survival rate (%)=(Atest solution−Ablank)/(Acontrol−Ablank)*100%

[1] = system: MCAO model (middle cerebral artery ischemia-reperfusion); test: In vivo drug efficacy test of MCAO model; conditions: SD rats, MCAO 2 h then reperfusion, tail vein infusion 30 min; for Cerebral infarction area (%): TTC staining, infarct area to whole brain area; for Improvements of nerve function (%): score at 24 h versus model control

Compound: CC(=O)OC(C)Oc1cc(C)nn1-c1ccccc1 (centres unmarked) [Compound 1]
- EC50 (PC12 cells): 66.4 µM

Compound: Cc1cc(OC(C)OC(=O)C(C)C)n(-c2ccccc2)n1 (centres unmarked) [Compound 3, 1-(3-methyl-1-phenylpyrazole) oxyethyl isobutyrate]
- EC50 (PC12 cells): 98 µM
- IC50 at 48 h (Cytotoxic test (MTT)): > 300 µM

Compound: Cc1cc(OC(C)OC(=O)C(C)(C)C)n(-c2ccccc2)n1 (centres unmarked) [Compound 4, 1-(3-methyl-1-phenylpyrazole) oxyethyl pivalate]
- EC50 (PC12 cells): 69.5 µM
- IC50 at 48 h (Cytotoxic test (MTT)): > 300 µM

Compound: CCCCCCCC(=O)OC(C)Oc1cc(C)nn1-c1ccccc1 (centres unmarked) [Compound 5, 1-(3-methyl-1-phenylpyrazole)oxyethyl octanoate]
- IC50 at 48 h (Cytotoxic test (MTT)): > 300 µM

Compound: CCCCCCCCCCCCCCCCCC(=O)OC(C)Oc1cc(C)nn1-c1ccccc1 (centres unmarked) [Compound 6]
- EC50 (PC12 cells): 56.8 µM

Compound: Cc1cc(OC(C)OC(=O)c2ccccc2)n(-c2ccccc2)n1 (centres unmarked) [Compound 7, 1-(3-methyl-1-phenylpyrazole) oxyethyl benzoate]
- EC50 (PC12 cells): 88.9 µM
- IC50 at 48 h (Cytotoxic test (MTT)): > 300 µM

Compound: Cc1cc(OC(C)OC(=O)Cc2ccccc2)n(-c2ccccc2)n1 (centres unmarked) [Compound 8]
- EC50 (PC12 cells): 100 µM

Compound: Cc1cc(OC(C)OC(=O)CCCc2ccccc2)n(-c2ccccc2)n1 (centres unmarked) [Compound 9, 1-(3-methyl-1-phenylpyrazole)oxyethyl phenylbutyrate]
- Cerebral infarction area (%) [1]: 19.8%
- Improvements of nerve function (%) [1]: 16.0%
- EC50 (PC12 cells): 120 µM
- IC50 at 48 h (Cytotoxic test (MTT)): > 300 µM

Compound: Cc1cc(OC(C)OC(=O)C2CC2)n(-c2ccccc2)n1 (centres unmarked) [Compound 10]
- EC50 (PC12 cells): 55.7 µM

Compound: Cc1cc(OC(C)OC(=O)C2CCCCC2)n(-c2ccccc2)n1 (centres unmarked) [Compound 12]
- EC50 (PC12 cells): 89 µM

Compound: Cc1cc(OCOC(=O)C(C)(C)C)n(-c2ccccc2)n1 [Compound 13, (3-methyl-1-phenylpyrazol-5-) oxymethyl pivalate]
- Cerebral infarction area (%) [1]: 17.5%
- Improvements of nerve function (%) [1]: 17.2%
- EC50 (PC12 cells): 110 µM
- IC50 at 48 h (Cytotoxic test (MTT)): 252 µM

Compound: Cc1cc(OCOC(=O)C(C)C)n(-c2ccccc2)n1 [Compound 14, (3-methyl-1-phenylpyrazol-5-) oxymethyl isobutyrate]
- EC50 (PC12 cells): 45.2 µM

Compound: CCCCCCCC(=O)OCOc1cc(C)nn1-c1ccccc1 [Compound 15, (3-methyl-1-phenylpyrazol-5-) oxymethyl octanoate]
- Cerebral infarction area (%) [1]: 20.0%
- Improvements of nerve function (%) [1]: 15.9%
- EC50 (PC12 cells): 67.2 µM

Compound: Cc1cc(OCOC(=O)CCCc2ccccc2)n(-c2ccccc2)n1 [Compound 16, (3-methyl-1-phenylpyrazol-5-) oxymethyl phenylbutyrate]
- Cerebral infarction area (%) [1]: 19.9%
- Improvements of nerve function (%) [1]: 16.2%
- EC50 (PC12 cells): 48 µM
- IC50 at 48 h (Cytotoxic test (MTT)): 234 µM

Compound: Cc1cc(OCOC(=O)c2cccnc2)n(-c2ccccc2)n1 [Compound 17, (3-methyl-1-phenylpyrazol-5-) oxymethyl nicotinate]
- EC50 (PC12 cells): 94.9 µM
- IC50 at 48 h (Cytotoxic test (MTT)): > 300 µM

Compound: Cc1cc(OCOC(=O)c2ccccc2)n(-c2ccccc2)n1 [Compound 18, (3-methyl-1-phenylpyrazol-5-) oxymethyl benzoate]
- EC50 (PC12 cells): 75 µM
- IC50 at 48 h (Cytotoxic test (MTT)): > 300 µM

Compound: Cc1cc(OCOC(=O)c2ccccc2O)n(-c2ccccc2)n1 [Compound 19, (3-methyl-1-phenylpyrazol-5-) oxymethyl-(2-hydroxy) benzoate]
- IC50 at 48 h (Cytotoxic test (MTT)): > 300 µM

Compound: CCOC(=O)Oc1ccccc1C(=O)OCOc1cc(C)nn1-c1ccccc1 [Compound 21, (3-methyl-1-phenylpyrazole-5-) oxymethyl-(2-ethoxycarbonyloxy) benzoate]
- EC50 (PC12 cells): 82.1 µM

Compound: Cc1cc(OCOC(=O)c2ccccc2OC(=O)C(C)C)n(-c2ccccc2)n1 [Compound 22, (3-methyl-1-phenylpyrazol-5-)oxymethyl-(2-isobutyryloxy)benzoic acid]
- EC50 (PC12 cells): 103 µM

Compound: Cc1cc(OCOC(=O)c2cccc(N(C)C)c2O)n(-c2ccccc2)n1 [Compound 23, (3-methyl-1-phenylpyrazol-5-) oxymethyl-(2-hydroxy-3-N,N-dimethyl)benzoate]
- EC50 (PC12 cells): 124 µM

Compound: CCOC(=O)Oc1ccc(N(C)C)cc1C(=O)OCOc1cc(C)nn1-c1ccccc1 [Compound 25, (3-methyl-1-phenylpyrazole-5-) oxymethyl-(2-ethoxycarbonyloxy-5-N,N-dimethyl)benzoic Acid]
- EC50 (PC12 cells): 59.3 µM
- IC50 at 48 h (Cytotoxic test (MTT)): > 300 µM

Compound: CC(=O)OCOc1cc(C)nn1-c1ccccc1 [Compound 26]
- EC50 (PC12 cells): 54.8 µM
- IC50 at 48 h (Cytotoxic test (MTT)): > 300 µM

Compound: Cc1cc(OCOC(=O)C2CC2)n(-c2ccccc2)n1 [Compound 28]
- EC50 (PC12 cells): 85.9 µM

Compound: Cc1cc(OCOC(=O)C2CCCCC2)n(-c2ccccc2)n1 [Compound 30]
- EC50 (PC12 cells): 77.2 µM

Compound: Cc1cc(OCOC(=O)Cc2ccccc2)n(-c2ccccc2)n1 [Compound 31]
- EC50 (PC12 cells): 91.2 µM

Compound: CCCCCCCCCCCCCCCCCC(=O)OCOc1cc(C)nn1-c1ccccc1 [Compound 32]
- EC50 (PC12 cells): 80.7 µM
- IC50 at 48 h (Cytotoxic test (MTT)): > 300 µM

Compound: CC(=O)NCOc1cc(C)nn1-c1ccccc1 [Compound 41, N-((1-phenyl-3-methyl-1H-pyrazol-5-yl)oxy) methylacetamide]
- EC50 (PC12 cells): 55.1 µM

Compound: CCC(=O)NCOc1cc(C)nn1-c1ccccc1 [Compound 42, N-((1-phenyl-3-methyl-1H-pyrazol-5-yl)oxy) methyl propionamide]
- Cerebral infarction area (%) [1]: 19.7%
- Improvements of nerve function (%) [1]: 15.9%
- EC50 (PC12 cells): 75.4 µM
- IC50 at 48 h (Cytotoxic test (MTT)): > 300 µM

Compound: Cc1cc(OCNC(=O)C(C)C)n(-c2ccccc2)n1 [Compound 43, N-((1-phenyl-3-methyl-1H-pyrazol-5-yl)oxy) methylisobutyramide]
- Cerebral infarction area (%) [1]: 19.8%
- Improvements of nerve function (%) [1]: 16.1%
- EC50 (PC12 cells): 58.1 µM

Compound: Cc1cc(OCNC(=O)C(C)(C)C)n(-c2ccccc2)n1 [Compound 44, N-((1-phenyl-3-methyl-1H-pyrazol-5-yl)oxy) methyltrimethylacetamide]
- EC50 (PC12 cells): 77.9 µM

Compound: Cc1cc(OCNC(=O)C2CC2)n(-c2ccccc2)n1 [Compound 45, N-((1-phenyl-3-methyl-1H-pyrazol-5-yl)oxy) methylcyclopropylformamide]
- EC50 (PC12 cells): 75.3 µM

Compound: Cc1cc(OCNC(=O)C2CCCC2)n(-c2ccccc2)n1 [Compound 46, N-((1-phenyl-3-methyl-1H-pyrazol-5-yl)oxy) methylcyclopentylformamide]
- EC50 (PC12 cells): 90.1 µM

Compound: Cc1cc(OCNC(=O)C2CCCCC2)n(-c2ccccc2)n1 [Compound 47, N-((1-phenyl-3-methyl-1H-pyrazol-5-yl)oxy) methylcyclohexanecarboxamide]
- EC50 (PC12 cells): 53.6 µM
- IC50 at 48 h (Cytotoxic test (MTT)): 269 µM

Compound: Cc1cc(OCNC(=O)c2ccccc2)n(-c2ccccc2)n1 [Compound 48, N-((1-phenyl-3-methyl-1H-pyrazol-5-yl)oxy) methylbenzamide]
- EC50 (PC12 cells): 123 µM

Compound: Cc1cc(OCNC(=O)Cc2ccccc2)n(-c2ccccc2)n1 [Compound 49, N-((1-phenyl-3-methyl-1H-pyrazol-5-yl)oxy) methylphenylacetamide]
- IC50 at 48 h (Cytotoxic test (MTT)): > 300 µM

Compound: Cc1cc(OCNC(=O)CCCc2ccccc2)n(-c2ccccc2)n1 [Compound 50, N-((1-phenyl-3-methyl-1H-pyrazol-5-yl)oxy) methylphenylbutyramide]
- EC50 (PC12 cells): 101 µM

Compound: CCCCCCCCCCCCCCCCCC(=O)NCOc1cc(C)nn1-c1ccccc1 [Compound 52, N-((1-phenyl-3-methyl-1H-pyrazol-5-yl)oxy)methyl stearamide]
- EC50 (PC12 cells): 78.6 µM
